Test [1] can be described thus: Inhibition of mouse GAT-3 expressed in HEK293 cells assessed as decrease in [3H]GABA uptake preincubated for 25 mins followed by [3H]GABA addition and measured after 4 mins by scintillation counting analysis.
Test [2] can be described thus: Inhibition of mouse GAT-2 expressed in HEK293 cells assessed as decrease in [3H]GABA uptake preincubated for 25 mins followed by [3H]GABA addition and measured after 10 mins by scintillation counting analysis.

IC50 data for four molecules are collected here from BindingDB's records for doi:10.1016/j.bmc.2019.02.015 (2019).

A word on the IC50: it is the midpoint of a concentration-inhibition curve. Take `O=C(O)[C@@H]1CCCN(CCON=Cc2ccccc2-c2ccc(Cl)cc2Cl)C1`: the IC50 is 57.5 µM in test [1] and 42.7 µM in test [2].

For the molecule `O=C(O)C1CCCN(CCON=Cc2sccc2-c2ccc(Cl)cc2Cl)C1` (stereo unspecified), the IC50 was determined as 91.2 µM in test [1] and 38 µM in test [2].

In the case of `O=C(O)C1CCCN(CCON=Cc2cc(F)ccc2-c2ccc(Cl)cc2Cl)C1` (stereo unspecified), the IC50 in test [2] was 17.8 µM.

As to `O=C(O)C1CCCN(CCON=Cc2ccccc2-c2ccc(Cl)cc2Cl)C1` (stereo unspecified), in test [2], the IC50 was determined as 45.7 µM.
